# According to PMC8429728, “TNK1 is a ubiquitin-binding and 14-3-3-regulated kinase that can be targeted to block tumor growth” (Nature Communications, 2021):
# Read-outs that look alike come from different tables or passages of the source.
# Legend:
# Test in all cases: biochemical
# Parameters in all cases: Reaction Biology 371-kinase panel at Km ATP, per cent enzyme activity relative to DMSO, single dose in duplicate
# AKT2 = AKT2 (Homo sapiens, UniProt P31751); details: duplicate measurements, Km ATP
# Summary of the method: (§1)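 Compound screened at 300 nM in vitro across a 371-kinase panel. Enzyme activity expressed as % of DMSO controls. IC50 values came from sigmoidal variable-slope dose-response fits with the bottom fixed at 0.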
# CDC7/DBF4 = CDC7/DBF4 (Homo sapiens, UniProt O00311); details: duplicate measurements, Km ATP
# CDC7/DBF4, sequence (O00311 whole entry): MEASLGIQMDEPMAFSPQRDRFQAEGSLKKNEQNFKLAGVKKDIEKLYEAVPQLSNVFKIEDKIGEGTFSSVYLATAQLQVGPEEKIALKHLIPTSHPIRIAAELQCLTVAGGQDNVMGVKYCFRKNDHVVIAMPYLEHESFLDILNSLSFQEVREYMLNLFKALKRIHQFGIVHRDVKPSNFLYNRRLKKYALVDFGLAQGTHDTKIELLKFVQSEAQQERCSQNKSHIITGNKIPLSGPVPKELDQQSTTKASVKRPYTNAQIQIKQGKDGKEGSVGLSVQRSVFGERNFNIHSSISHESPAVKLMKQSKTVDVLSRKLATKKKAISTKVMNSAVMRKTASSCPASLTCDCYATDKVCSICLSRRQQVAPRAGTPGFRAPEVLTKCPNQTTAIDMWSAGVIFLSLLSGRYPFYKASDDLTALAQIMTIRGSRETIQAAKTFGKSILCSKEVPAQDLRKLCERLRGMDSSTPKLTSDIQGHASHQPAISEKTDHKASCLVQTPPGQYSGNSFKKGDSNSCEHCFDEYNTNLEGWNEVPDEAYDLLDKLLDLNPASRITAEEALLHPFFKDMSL
# CDC7/DBF4, sequence (Q9UBU7 whole entry partner): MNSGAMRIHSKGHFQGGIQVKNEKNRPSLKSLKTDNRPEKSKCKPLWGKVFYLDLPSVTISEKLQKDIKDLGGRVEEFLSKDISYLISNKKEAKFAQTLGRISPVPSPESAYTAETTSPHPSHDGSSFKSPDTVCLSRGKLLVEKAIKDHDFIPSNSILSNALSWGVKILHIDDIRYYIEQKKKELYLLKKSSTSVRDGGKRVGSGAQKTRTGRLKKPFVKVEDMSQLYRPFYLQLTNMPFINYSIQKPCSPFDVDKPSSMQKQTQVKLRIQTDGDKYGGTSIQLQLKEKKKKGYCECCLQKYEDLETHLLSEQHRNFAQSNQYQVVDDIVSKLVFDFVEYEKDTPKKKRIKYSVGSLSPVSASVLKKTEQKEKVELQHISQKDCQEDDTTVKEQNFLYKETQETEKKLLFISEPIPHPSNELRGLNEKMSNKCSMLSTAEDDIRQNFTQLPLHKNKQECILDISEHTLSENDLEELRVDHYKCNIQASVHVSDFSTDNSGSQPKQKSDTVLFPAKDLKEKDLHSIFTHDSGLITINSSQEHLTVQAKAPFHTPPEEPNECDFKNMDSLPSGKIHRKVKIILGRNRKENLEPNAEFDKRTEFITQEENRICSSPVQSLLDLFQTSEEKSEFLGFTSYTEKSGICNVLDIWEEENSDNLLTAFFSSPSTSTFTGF
# Summary of the method: as §1
# MYO3b = MYO3b (Homo sapiens, UniProt Q8WXR4); details: duplicate measurements, Km ATP
# Summary of the method: as §1
# PIM2 = PIM2 (Homo sapiens, UniProt Q9P1W9); details: duplicate measurements, Km ATP
# PIM2, sequence (Q9P1W9 whole entry): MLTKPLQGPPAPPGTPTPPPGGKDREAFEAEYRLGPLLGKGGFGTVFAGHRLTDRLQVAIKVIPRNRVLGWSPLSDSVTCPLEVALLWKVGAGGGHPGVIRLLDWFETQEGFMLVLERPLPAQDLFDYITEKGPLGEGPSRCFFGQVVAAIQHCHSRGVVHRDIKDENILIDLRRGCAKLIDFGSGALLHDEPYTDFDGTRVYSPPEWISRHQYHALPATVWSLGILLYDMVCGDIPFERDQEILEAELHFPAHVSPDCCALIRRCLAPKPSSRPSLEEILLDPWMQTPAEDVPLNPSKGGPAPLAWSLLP
# Summary of the method: as §1
# TAK1 = biological target: T1, TAK1 (Homo sapiens, UniProt O43318); details: duplicate measurements, Km ATP
# T1 construct: gene MAP3K7
# Summary of the method: as §1
# CDK9/CYCLIN K = CDK9/CYCLIN K (Homo sapiens, UniProt P50750); details: duplicate measurements, Km ATP
# Summary of the method: as §1
# LIMK1 = LIMK1 (Homo sapiens, UniProt P53667); details: duplicate measurements, Km ATP; read-out: % Enzyme Activity (relative to DMSO controls) / TP-0005801 (0.3µM) / Data 1
# Summary of the method: as §1
# SGK2 = SGK2 (Homo sapiens, UniProt Q9HBY8); details: duplicate measurements, Km ATP
# Summary of the method: as §1
# CK1a1L = biological target: T2, CK1a1L (Homo sapiens, UniProt Q8N752); details: duplicate measurements, Km ATP
# T2 construct: gene CSNK1A1L
# Summary of the method: as §1
# EPHA6 = EPHA6 (Homo sapiens, UniProt Q9UF33); details: duplicate measurements, Km ATP
# EPHA6, sequence (Q9UF33 whole entry): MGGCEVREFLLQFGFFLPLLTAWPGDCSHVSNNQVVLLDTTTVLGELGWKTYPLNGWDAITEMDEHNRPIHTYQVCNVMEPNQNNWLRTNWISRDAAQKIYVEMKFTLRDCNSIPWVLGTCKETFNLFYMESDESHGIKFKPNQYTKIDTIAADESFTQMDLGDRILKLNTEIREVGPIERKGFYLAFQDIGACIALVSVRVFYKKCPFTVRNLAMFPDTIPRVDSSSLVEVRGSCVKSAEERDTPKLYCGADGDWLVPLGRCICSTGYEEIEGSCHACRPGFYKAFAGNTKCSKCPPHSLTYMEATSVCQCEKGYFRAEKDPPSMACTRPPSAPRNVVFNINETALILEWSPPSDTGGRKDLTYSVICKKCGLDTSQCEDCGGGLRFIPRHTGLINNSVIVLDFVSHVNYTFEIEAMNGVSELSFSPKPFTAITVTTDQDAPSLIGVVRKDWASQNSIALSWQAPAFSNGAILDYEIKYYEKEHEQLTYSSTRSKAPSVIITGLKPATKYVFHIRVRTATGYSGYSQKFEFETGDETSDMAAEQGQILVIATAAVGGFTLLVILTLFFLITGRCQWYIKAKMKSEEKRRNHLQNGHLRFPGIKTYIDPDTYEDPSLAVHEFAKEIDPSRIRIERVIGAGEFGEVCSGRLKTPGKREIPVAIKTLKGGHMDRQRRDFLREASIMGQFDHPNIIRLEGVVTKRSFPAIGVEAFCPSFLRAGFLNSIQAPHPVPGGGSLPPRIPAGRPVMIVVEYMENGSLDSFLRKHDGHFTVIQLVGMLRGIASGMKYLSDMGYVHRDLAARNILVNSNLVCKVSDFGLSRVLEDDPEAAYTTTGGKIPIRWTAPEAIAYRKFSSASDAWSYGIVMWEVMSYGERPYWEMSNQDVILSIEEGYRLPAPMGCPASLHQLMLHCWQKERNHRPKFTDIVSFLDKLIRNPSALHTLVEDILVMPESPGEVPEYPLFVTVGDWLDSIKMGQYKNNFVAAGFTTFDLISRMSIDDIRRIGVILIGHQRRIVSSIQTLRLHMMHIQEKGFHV
# Summary of the method: as §1
# LYN = LYN (Homo sapiens, UniProt P07948); details: duplicate measurements, Km ATP
# Summary of the method: as §1
# PKN1/PRK1 = PKN1/PRK1 (Homo sapiens, UniProt Q16512); details: duplicate measurements, Km ATP
# Summary of the method: as §1
# PAK4 = PAK4 (Homo sapiens, UniProt O96013); details: duplicate measurements, Km ATP
# Summary of the method: as §1
# MEKK3 = biological target: T3, MEKK3 (Homo sapiens, UniProt Q99759); details: duplicate measurements, Km ATP
# T3 construct: gene MAP3K3
# T3 sequence (Q99759 whole entry): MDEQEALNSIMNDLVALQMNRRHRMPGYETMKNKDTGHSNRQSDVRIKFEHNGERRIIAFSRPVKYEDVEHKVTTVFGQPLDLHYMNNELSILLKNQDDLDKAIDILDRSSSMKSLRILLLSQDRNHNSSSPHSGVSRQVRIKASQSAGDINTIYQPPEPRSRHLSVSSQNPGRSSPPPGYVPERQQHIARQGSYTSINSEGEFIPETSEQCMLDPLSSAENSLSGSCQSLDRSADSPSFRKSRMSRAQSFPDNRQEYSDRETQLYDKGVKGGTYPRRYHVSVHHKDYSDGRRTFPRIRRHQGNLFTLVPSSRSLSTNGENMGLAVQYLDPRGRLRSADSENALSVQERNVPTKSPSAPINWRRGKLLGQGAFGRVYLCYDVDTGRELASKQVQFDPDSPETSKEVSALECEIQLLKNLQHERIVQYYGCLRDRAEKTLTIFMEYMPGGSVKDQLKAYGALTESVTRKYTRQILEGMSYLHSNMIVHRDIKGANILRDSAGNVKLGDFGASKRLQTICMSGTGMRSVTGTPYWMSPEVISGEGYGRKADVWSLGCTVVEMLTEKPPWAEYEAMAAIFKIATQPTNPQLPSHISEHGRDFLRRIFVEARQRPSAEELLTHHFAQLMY
# Summary of the method: as §1
# ACK1 = biological target: T4, ACK1 (Homo sapiens, UniProt Q07912); details: duplicate measurements, Km ATP
# T4 construct: gene TNK2
# Summary of the method: as §1
# FGFR3 = FGFR3 (Homo sapiens, UniProt P22607); details: duplicate measurements, Km ATP
# Summary of the method: as §1
# TYRO3/SKY = TYRO3/SKY (Homo sapiens, UniProt Q06418); details: duplicate measurements, Km ATP; read-out: % Enzyme Activity (relative to DMSO controls) / TP-0005801 (0.3µM) / Data 1
# Summary of the method: as §1
# ULK1 = ULK1 (Homo sapiens, UniProt O75385); details: duplicate measurements, Km ATP
# ULK1, sequence (O75385 whole entry): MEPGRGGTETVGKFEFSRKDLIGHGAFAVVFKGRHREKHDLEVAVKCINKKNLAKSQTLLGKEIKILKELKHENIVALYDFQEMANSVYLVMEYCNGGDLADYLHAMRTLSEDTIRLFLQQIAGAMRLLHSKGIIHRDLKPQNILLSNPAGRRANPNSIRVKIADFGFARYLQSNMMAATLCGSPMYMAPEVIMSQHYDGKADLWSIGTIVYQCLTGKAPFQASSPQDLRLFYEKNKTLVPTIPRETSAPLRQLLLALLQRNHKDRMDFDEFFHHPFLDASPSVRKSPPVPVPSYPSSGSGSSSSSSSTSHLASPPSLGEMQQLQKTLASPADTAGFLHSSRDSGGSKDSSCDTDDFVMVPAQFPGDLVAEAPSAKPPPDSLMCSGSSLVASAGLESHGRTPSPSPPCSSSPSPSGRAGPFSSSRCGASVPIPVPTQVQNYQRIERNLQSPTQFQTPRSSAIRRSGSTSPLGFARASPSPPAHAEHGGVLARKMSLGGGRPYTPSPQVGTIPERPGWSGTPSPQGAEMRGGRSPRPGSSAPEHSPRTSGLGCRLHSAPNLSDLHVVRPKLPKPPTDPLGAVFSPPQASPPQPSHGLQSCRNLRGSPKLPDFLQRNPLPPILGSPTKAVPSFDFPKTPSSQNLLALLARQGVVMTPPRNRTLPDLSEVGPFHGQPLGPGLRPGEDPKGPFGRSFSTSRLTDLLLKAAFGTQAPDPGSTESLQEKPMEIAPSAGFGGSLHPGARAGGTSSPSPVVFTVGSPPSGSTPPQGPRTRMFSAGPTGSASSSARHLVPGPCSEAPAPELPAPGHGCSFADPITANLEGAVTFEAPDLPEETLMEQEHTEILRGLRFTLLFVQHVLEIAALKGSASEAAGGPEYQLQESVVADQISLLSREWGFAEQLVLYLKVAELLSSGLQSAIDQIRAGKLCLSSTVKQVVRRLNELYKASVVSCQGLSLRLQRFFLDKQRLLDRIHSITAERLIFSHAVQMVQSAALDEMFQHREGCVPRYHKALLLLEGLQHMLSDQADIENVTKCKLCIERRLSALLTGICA
# Summary of the method: as §1
# PKCb1 = biological target: T5, PKCb1 (Homo sapiens, UniProt P05771); details: duplicate measurements, Km ATP
# T5 construct: gene PRKCB; isoform beta I
# T5 sequence (P05771 whole entry, canonical isoform): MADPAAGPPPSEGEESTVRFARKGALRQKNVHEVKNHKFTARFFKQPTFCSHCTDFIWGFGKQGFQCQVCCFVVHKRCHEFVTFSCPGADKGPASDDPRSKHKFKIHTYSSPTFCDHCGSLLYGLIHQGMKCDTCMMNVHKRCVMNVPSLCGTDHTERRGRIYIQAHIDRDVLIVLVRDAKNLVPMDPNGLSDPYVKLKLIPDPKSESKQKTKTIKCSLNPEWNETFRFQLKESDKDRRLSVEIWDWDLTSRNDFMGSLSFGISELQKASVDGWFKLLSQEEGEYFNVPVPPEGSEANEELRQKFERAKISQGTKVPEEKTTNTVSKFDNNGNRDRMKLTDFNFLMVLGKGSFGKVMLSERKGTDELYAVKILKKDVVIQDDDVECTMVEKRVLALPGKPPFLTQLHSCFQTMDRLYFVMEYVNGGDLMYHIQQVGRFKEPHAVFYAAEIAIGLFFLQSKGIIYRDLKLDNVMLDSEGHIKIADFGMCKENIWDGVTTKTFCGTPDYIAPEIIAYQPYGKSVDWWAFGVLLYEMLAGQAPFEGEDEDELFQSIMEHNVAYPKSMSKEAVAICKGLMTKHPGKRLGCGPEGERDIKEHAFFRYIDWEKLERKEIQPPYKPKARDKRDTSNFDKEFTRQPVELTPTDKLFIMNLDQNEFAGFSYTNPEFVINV
# Summary of the method: as §1
# EPHB4 = EPHB4 (Homo sapiens, UniProt P54760); details: duplicate measurements, Km ATP
# Summary of the method: as §1
# [1] = read-out: % Enzyme Activity (relative to DMSO controls) / TP-0005801 (0.3µM) / Data 1
# [2] = read-out: % Enzyme Activity (relative to DMSO controls) / TP-0005801 (0.3µM) / Data 2
compound,measurement,setting,value
COc1cc(N2CCN(C)CC2)c(C)cc1Nc1ncc(Br)c(Nc2cccnc2N(C)C)n1 [TP-5801],remaining activity at 0.3 µM,AKT2; [1],100%
same,remaining activity at 0.3 µM,AKT2; [2],99.9%
same,remaining activity at 0.3 µM,CDC7/DBF4; [1],124%
same,remaining activity at 0.3 µM,CDC7/DBF4; [2],123%
same,remaining activity at 0.3 µM,MYO3b; [1],57.7%
same,remaining activity at 0.3 µM,MYO3b; [2],56.8%
same,remaining activity at 0.3 µM,PIM2; [1],116%
same,remaining activity at 0.3 µM,PIM2; [2],110%
same,remaining activity at 0.3 µM,TAK1; [1],103%
same,remaining activity at 0.3 µM,TAK1; [2],102%
same,remaining activity at 0.3 µM,CDK9/CYCLIN K; [1],108%
same,remaining activity at 0.3 µM,CDK9/CYCLIN K; [2],105%
same,remaining activity at 0.3 µM,LIMK1,104%
same,remaining activity at 0.3 µM,SGK2; [1],93.7%
same,remaining activity at 0.3 µM,SGK2; [2],92.7%
same,remaining activity at 0.3 µM,CK1a1L; [1],101%
same,remaining activity at 0.3 µM,CK1a1L; [2],99.8%
same,remaining activity at 0.3 µM,EPHA6; [1],103%
same,remaining activity at 0.3 µM,EPHA6; [2],98.6%
same,remaining activity at 0.3 µM,LYN; [1],70.1%
same,remaining activity at 0.3 µM,LYN; [2],69.8%
same,remaining activity at 0.3 µM,PKN1/PRK1; [1],91.8%
same,remaining activity at 0.3 µM,PKN1/PRK1; [2],90.3%
same,remaining activity at 0.3 µM,PAK4; [1],59.4%
same,remaining activity at 0.3 µM,PAK4; [2],54.7%
same,remaining activity at 0.3 µM,MEKK3; [1],92.4%
same,remaining activity at 0.3 µM,MEKK3; [2],88.5%
same,remaining activity at 0.3 µM,ACK1; [1],1.69%
same,remaining activity at 0.3 µM,ACK1; [2],1.45%
same,remaining activity at 0.3 µM,FGFR3; [1],107%
same,remaining activity at 0.3 µM,FGFR3; [2],105%
same,remaining activity at 0.3 µM,TYRO3/SKY,105%
same,remaining activity at 0.3 µM,ULK1; [1],49.9%
same,remaining activity at 0.3 µM,ULK1; [2],49.7%
same,remaining activity at 0.3 µM,PKCb1; [1],90.9%
same,remaining activity at 0.3 µM,PKCb1; [2],90.2%
same,remaining activity at 0.3 µM,EPHB4; [1],103%
same,remaining activity at 0.3 µM,EPHB4; [2],102%
